From patent publication US10179816B2, “Pharmaceutical compositions comprising an antibody which binds the human anti-Müllerian hormone receptor type II” (LABORATOIRE FRANCAIS DU FRACTIONNEMENT DES BIOTECHNOLOGIES, priority 2011, dated 2019)
“And” between values parts separate entries of the source, which are not always exact repeats. Identical values can stand only once. “Also recorded” adds a separate entry of the source.

Key:
[1] = system: Cov434-AMHRII Asc1a5 (cell line of human ovarian cancer transfected with cDNA AMHRII); assay: Anti-tumour activity of 3C23K alone or with carboplatin in Cov434-AMHRII Asc1a5 xenograft (tumour volume, T/C ratio, statistical analysis); type: in vivo, female Swiss nude mouse; conditions: for Anti-tumour activity (in words): carboplatin study, comparator as stated in the sentence
Method: The 3C23K antibody was evaluated according to the following scheme: 2 times per week for 6 weeks, for a total of 12 injections at about 10 mg/kg/injection, said administration regimen being designated below as “Q3-4D12”. Another group of mice was treated with an irrelevant antibody LFB-R565, administered at about 10 mg/kg/injection, according to the regimen Q3-4D12.
Carboplatin was evaluated, at a sub-optimum dose, i.e. about 60 mg/kg/injection, according to the following scheme: once a week, for 4 weeks, said administration regimen being designated below as “Q7D4”.
Carboplatin was also evaluated in combination with the 3C23K antibody or with the irrelevant antibody LFB-R565. Carboplatin was administered at about 60 mg/kg/injection according to the Q7D4 regimen and the 3C23K antibody or the irrelevant antibody LFB-R565 at about 10 mg/kg/injection according to the regimen Q3-4D12.
The mice were randomized on D11, when the volume of the tumours was between 50 and 158 mm^3, and the treatments began on D13 (9 mice per group).
The tumours were usually measured twice weekly.
The curves of the individual volume of the tumours were plotted.
In one experiment with 9 mice per group, the curves and analyses were therefore stopped when fewer than 8 values per group had been obtained (8 mice alive).
A Kruskal-Wallis test was also carried out.

[2] = Body weight of the mice, carboplatin combination study; type: in vivo; conditions: for Individual body weight of the mice: one value per mouse
Excerpt: Moreover, to identify whether the treatment has a toxic effect, the weight of the mice was monitored individually once a week.

[3] = D11, randomization, before treatment

SMILES: N.N.O=C([O-])C1(C(=O)[O-])CCC1.[Pt+2] [carboplatin, reference compound]
- Individual tumour volume [1, 3]: 53 mm^3 and 142 mm^3 and 61 mm^3 and 102 mm^3 and 90 mm^3 and 72 mm^3 and 81 mm^3 and 70 mm^3 and 114 mm^3
- Mean tumour volume [1, 3]: 87 mm^3
- Median tumour volume [1, 3]: 81 mm^3
- Individual tumour volume ([1]; D14): 104 mm^3 and 210 mm^3 (2×) and 162 mm^3 and 126 mm^3 and 123 mm^3 and 75 mm^3 and 134 mm^3 and 168 mm^3
- Mean tumour volume ([1]; D14): 146 mm^3
- Median tumour volume ([1]; D14): 134 mm^3
- Individual tumour volume ([1]; D18): 98 mm^3 and 173 mm^3 and 112 mm^3 (2×) and 336 mm^3 and 248 mm^3 and 140 mm^3 and 90 mm^3 (2×)
- Mean tumour volume ([1]; D18): 155 mm^3
- Median tumour volume ([1]; D18): 112 mm^3
- Individual tumour volume ([1]; D22): 378 mm^3 and 126 mm^3 and 360 mm^3 and 324 mm^3 and 363 mm^3 and 270 mm^3 and 156 mm^3 and 198 mm^3 and 168 mm^3
- Mean tumour volume ([1]; D22): 260 mm^3
- Median tumour volume ([1]; D22): 270 mm^3
- Individual tumour volume ([1]; D25): 140 mm^3 and 240 mm^3 and 270 mm^3 and 616 mm^3 and 152 mm^3 and 358 mm^3 and 98 mm^3 and 243 mm^3 and 210 mm^3
- Mean tumour volume ([1]; D25): 258 mm^3
- Median tumour volume ([1]; D25): 240 mm^3
- Individual tumour volume ([1]; D29): 270 mm^3 and 200 mm^3 and 360 mm^3 (2×) and 768 mm^3 and 363 mm^3 and 168 mm^3 and 420 mm^3
- Mean tumour volume ([1]; D29): 344 mm^3
- Median tumour volume ([1]; D29): 360 mm^3
- Individual tumour volume ([1]; D32): 351 mm^3 and 243 mm^3 and 578 mm^3 and 864 mm^3 and 653 mm^3 and 504 mm^3 and 220 mm^3 and 462 mm^3
- Mean tumour volume ([1]; D32): 461 mm^3
- Median tumour volume ([1]; D32): 462 mm^3
- Individual tumour volume ([1]; D36): 630 mm^3 and 424 mm^3 and 1148 mm^3 and 1610 mm^3 and 893 mm^3 and 462 mm^3 and 308 mm^3 and 774 mm^3
- Mean tumour volume ([1]; D36): 760 mm^3
- Median tumour volume ([1]; D36): 630 mm^3
- Individual tumour volume ([1]; D39): 660 mm^3 and 484 mm^3 and 1134 mm^3 and 1495 mm^3 and 1488 mm^3 and 447 mm^3 and 347 mm^3 and 910 mm^3 and 423 mm^3
- Mean tumour volume ([1]; D39): 821 mm^3
- Median tumour volume ([1]; D39): 660 mm^3
- Individual tumour volume ([1]; D43): 864 mm^3 and 592 mm^3 and 1881 mm^3 and 2112 mm^3 and 2038 mm^3 and 882 mm^3 and 438 mm^3 and 1105 mm^3 and 672 mm^3
- Mean tumour volume ([1]; D43): 1176 mm^3
- Median tumour volume ([1]; D43): 882 mm^3
- Individual tumour volume ([1]; D46): 1071 mm^3 and 501 mm^3 and 2205 mm^3 and 810 mm^3 and 378 mm^3 and 1450 mm^3 and 878 mm^3
- Individual tumour volume ([1]; D49): 1568 mm^3 and 819 mm^3 and 1125 mm^3 and 480 mm^3 and 1650 mm^3 and 980 mm^3
- Anti-tumour activity (in words) [1]: anti-tumour effect; also recorded: exerts anti-tumour activity
- Anti-tumour activity (in words) ([1]; listed as Carboplatin): significant anti-tumour activity
- T/C ratio ([1]; relative to Control group, D11 (before treatment)): 89%
- T/C ratio ([1]; relative to Control group, D14): 82%
- T/C ratio ([1]; relative to Control group, D18): 52%
- T/C ratio ([1]; relative to Control group, D22): 69%
- T/C ratio ([1]; relative to Control group, D25): 54%
- T/C ratio ([1]; relative to Control group, D29): 56%
- T/C ratio ([1]; relative to Control group, D32): 45%
- T/C ratio ([1]; relative to Control group, D36): 40%
- T/C ratio ([1]; relative to LFB-R565 group, D11 (before treatment)): 100%
- T/C ratio ([1]; relative to LFB-R565 group, D14): 87%
- T/C ratio ([1]; relative to LFB-R565 group, D18): 65%
- T/C ratio ([1]; relative to LFB-R565 group, D22): 100%
- T/C ratio ([1]; relative to LFB-R565 group, D25): 59%
- T/C ratio ([1]; relative to LFB-R565 group, D29): 52%
- T/C ratio ([1]; relative to LFB-R565 group, D32): 67%
- T/C ratio ([1]; relative to LFB-R565 group, D36): 35%
- Individual body weight of the mice ([2]; D11 (Sep. 19, 2011)): 22.3 (2×) and 25.8 and 23.0 and 27.1 and 23.3 and 24.5 and 22.7 and 20.4
- Individual body weight of the mice ([2]; D18 (Sep. 26, 2011), in g (unit assumed)): 22.2 and 24.6 and 22.6 and 26.1 and 24.4 and 25.4 and 23.6 and 20.3 and 22.0
- Individual body weight of the mice ([2]; D25 (Oct. 3, 2011)): 27.6 and 28.3 and 25.6 (2×) and 32.7 and 27.0 and 29.4 and 24.2 and 26.0
- Individual body weight of the mice ([2]; D32 (Oct. 10, 2011)): 23.7 and 24.5 and 23.6 (2×) and 28.0 and 23.1 (2×) and 21.1 and 20.2
- Individual body weight of the mice ([2]; D39 (Oct. 17, 2011), in g (unit assumed)): 24.3 and 23.9 and 25.1 and 27.2 and 25.4 and 22.4 and 20.0 and 21.0 and 23.3
- Individual body weight of the mice ([2]; D46 (Oct. 24, 2011)): 25.4 and 25.7 (2×) and 26.4 and 21.7 and 21.0 and 25.0
- Mean body weight of the mice ([2]; Day 11 (before treatment)): 23.5 g
- Mean body weight of the mice ([2]; Day 18): 23.5 g
- Mean body weight of the mice ([2]; Day 25): 27.4 g
- Mean body weight of the mice ([2]; Day 32): 23.4 g
- Mean body weight of the mice ([2]; Day 39): 23.6 g
- Effect on body weight / toxic effect (in words) ([2]; carboplatin study): not regarded as a toxic effect
- Decrease in body weight ([2]; on D32 in comparison with D25, after the third injection of carboplatin): about 15%
